Experimental data: paper PMC12652692, “Synthesis and In Vitro Anticancer Evaluation of Novel Phosphonium Derivatives of Chrysin” (International Journal of Molecular Sciences, 2025)

Key:
Type in all cases: cell-based
[1] = system: MALME-3M; assay: NCI60 one-dose screen; details: Homo sapiens, read-out: Growth percent
How it was run: (§1)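 Each cell line received a single 10 µM dose. Cells were fixed with cold TCA after 48 h, stained with 0.4% SRB, and read at 515 nm, with percent growth normalised to the control and time-zero plates.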

[2] = system: BT-549; assay: NCI60 one-dose screen; details: Homo sapiens; BT-549, 10 μM; read-out: Growth percent
How it was run: as §1

[3] = system: HCT-116; assay: NCI60 one-dose screen; details: Homo sapiens; HCT-116, 10 μM; read-out: Growth percent
How it was run: as §1

[4] = system: MDA-MB-468; assay: NCI60 one-dose screen; details: Homo sapiens; MDA-MB-468, 10 μM; read-out: Growth percent
How it was run: as §1

[5] = system: SF-268; assay: NCI60 one-dose screen; details: Homo sapiens; SF-268, 10 μM; read-out: Growth percent
How it was run: as §1

[6] = system: NCI-H226; assay: NCI60 one-dose screen; details: Homo sapiens; NCI-H226, 10 μM; read-out: Growth percent
How it was run: as §1

[7] = system: MDA-MB-231/ATCC; assay: NCI60 one-dose screen; details: Homo sapiens, read-out: Growth percent
How it was run: as §1

[8] = system: HOP-62; assay: NCI60 one-dose screen; details: Homo sapiens; HOP-62, 10 μM; read-out: Growth percent
How it was run: as §1

[9] = system: NCI-H322M; assay: NCI60 one-dose screen; details: Homo sapiens, read-out: Growth percent
How it was run: as §1

[10] = system: SK-MEL-28; assay: NCI60 one-dose screen; details: Homo sapiens; SK-MEL-28, 10 μM; read-out: Growth percent
How it was run: as §1

[11] = system: SN12C; assay: NCI60 one-dose screen; details: Homo sapiens, read-out: Growth percent
How it was run: as §1

[12] = system: UO-31; assay: NCI60 one-dose screen; details: Homo sapiens; UO-31, 10 μM; read-out: Growth percent
How it was run: as §1

[13] = system: 786-0; assay: NCI60 one-dose screen; details: Homo sapiens; 786-0, 10 μM; read-out: Growth percent
How it was run: as §1

[14] = system: K-562; assay: NCI60 one-dose screen; details: Homo sapiens, K562; K-562, 10 μM; read-out: Growth percent
How it was run: as §1

[15] = system: EKVX; assay: NCI60 one-dose screen; details: Homo sapiens, read-out: Growth percent
How it was run: as §1

[16] = system: TK-10; assay: NCI60 one-dose screen; details: Homo sapiens; TK-10, 10 μM; read-out: Growth percent
How it was run: as §1

[17] = system: MOLT-4; assay: NCI60 one-dose screen; details: Homo sapiens; MOLT-4, 10 μM; read-out: Growth percent
How it was run: as §1

[18] = system: A498; assay: NCI60 one-dose screen; details: Homo sapiens; A498, 10 μM; read-out: Growth percent
How it was run: as §1

[19] = system: CCRF-CEM; assay: NCI60 one-dose screen; details: Homo sapiens, read-out: Growth percent
How it was run: as §1

[20] = system: 60 human cancer cell lines; assay: NCI60 one-dose screen, overall mean; details: mean over all 60 cell lines, read-out: Mean growth percent
Experimental: The screening results are presented in the Supplementary Materials (Table S1), where the cytotoxicity was determined for the 10 µM concentration. […] The negative numbers indicate significant decreases in the cell number. […] Compared to the reference chrysin (2), all phosphonium hybrids (3a–h) had significant antiproliferative activities. […] At the same time, it should be noted that more than 60% average reduction was also obtained in the case of the other examined conjugates (3a–h).
A detailed description of the NCI screening procedures, including the one-dose and five-dose tests, can be found in the Supplementary Materials, on the website of NCI [39], and in our previous work.
A detailed description of the NCI screening procedures can also be found on the website of NCI [39], and in our […]
All candidates were examined at first at a single high dose (10 μM) in the full NCI60 cell panel. The value reported for the one-dose test is growth relative to the no-drug control and relative to the time zero number of cells. This made possible the disclosure of both growth inhibition (numbers between 0 and 100) and lethality (numbers less than 0). For example, a value of 100 means no growth inhibition. A value of 20 would mean 80% growth inhibition. A value of 0 means no net growth over the course of the analysis. A value of −20 would mean 20% lethality. A value of −100 means all cells are dead. […]
concentration levels. The human tumor cell lines of the cancer screening panel were grown in RPMI 1640 medium containing 5% fetal bovine serum and 2 mM l-glutamine. Characteristically, cells were injected in 96-well microtiter plates in 0.1 mL at plating densities ranging from 5000 to 40,000 cells/well, depending on the doubling time of individual cell lines. After cell inoculation, the microtiter plates were incubated at 37 °C, 5% carbon dioxide, 95% air, and 100% relative humidity for 24 hours before the addition of tested compounds. After 24 hours, 2 plates of each cell line were fixed in situ with Cl3COOH (TCA), to represent a measurement of the cell population for each cell line at the time of drug addition (tz). Tested compounds were solubilized in DMSO at 400-fold the desired final maximum test concentration and stored frozen before application. In the course of the drug addition, an aliquot of frozen concentrate was thawed and diluted to twice the desired final maximum test concentration with a complete medium containing 50 μg mL−1 gentamicin. Additional four, 10-fold or ½ log serial dilutions were produced to furnish a total of five drug concentrations plus control. Aliquots of 0.1 mL of these different drug dilutions were added to the appropriate microtiter wells already containing 0.1 mL of medium, resulting in the required final drug concentrations.
Following drug addition, the plates were incubated at 37 °C, 5% carbon dioxide, 95% air, and 100% relative humidity for an additional 48 hours. For adherent cells, the test was finished by the addition of cold Cl3COOH. Cells were fixed in situ by the addition of 50 μL of cold 50% (w/v) Cl3COOH, and incubated at 4 °C for 1 hour. The supernatant was discarded, and the plates were washed with H2O (5×) and dried in air. Sulforhodamine B (SRB) solution (0.1 mL) at 0.4% (w/v) in 1% CH3COOH was added to each well, and plates were incubated at RT for 10 min. After staining, the unbound dye was removed by washing five times with 1% CH3COOH, and the plates were dried in the air. The bound stain is afterward solubilized with a 10 mM trizma base, and the absorbance is read on an automated plate reader at λ = 515 nm. Utilizing the seven absorbance measurements [time zero (tz), control growth (c), and test growth in the presence of the drug at the five concentration levels (ti)], the percentage growth was determined at each of the drug concentration levels. Growth inhibition (%) was calculated as:
[(ti − tz)/(c − tz)] × 100, for concentrations where ti ≥ tz (1) […]

With `O=c1cc(-c2ccccc2)oc2cc(O)cc(O)c12` [compound 2, 5,7-dihydroxyflavone, reference compound] the activity at 10 µM [1] was 102%, the activity at 10 µM [2] was 91% and the activity at 10 µM [3] was 82.7%. For the same compound, the activity at 10 µM [4] was 91.1%, the activity at 10 µM [5] was 102% and the activity at 10 µM [6] was 86.8%. For the same compound, the activity at 10 µM [7] was 82.6%, the activity at 10 µM [8] was 113% and the activity at 10 µM [9] was 98.3%. It also gave an activity at 10 µM [10] of 102%, an activity at 10 µM [11] of 85.8% and an activity at 10 µM [12] of 89.4%. For the same compound, the activity at 10 µM [13] was 99.2%, the activity at 10 µM [14] was 96.8% and the activity at 10 µM [15] was 89.3%. The activity at 10 µM [16] was 107%, the activity at 10 µM [17] was 106% and the activity at 10 µM [18] was 86.6%. The activity at 10 µM [19] was 102% and the activity at 10 µM [20] was 96.1%.
